The source of these data is patent US20090093454A1, “Chemical Compounds” (priority 2005, published 2009).

This assay deals with HIV-1. Put plainly: HIV infectivity assay (Table 2, strain not given). The class given is cell-based. The following applies: Human immunodeficiency virus 1, read-out: Activity Level. An outline of the steps:
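HOS cells expressing hCXCR4/hCCR5/hCD4 with HIV-LTR-luciferase, pre-treated 1 h with compound at 37 °C, then infected with HIV-1 Ba-L or IIIB (~2 million RLU/well) for 96 h. Infection read by Steady-Glo luciferase; cytotoxicity in uninfected cultures by CellTiter-Glo.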
Take `CN(C)C1CCN(c2cccc3nc(CN4CCC[C@H]5CCc6cccnc6[C@H]54)cn23)C1` (stereo partly drawn) [Example 83, 1-{2-[(4aR,10bS)-3,4,4a,5,6,10b-hexahydro-1,10-phenanthrolin-1(2H)-ylmethyl]imidazo[1,2-a]pyridin-5-yl}-N,N-dimethyl-3-pyrrolidinamine]: the IC50 was below 100 nM. Then `c1cnc2c(c1)CC[C@@H]1CCCN(Cc3nc4ccccc4n3C[C@H]3CCCNC3)[C@H]21` [Example 64, (4aR,10bS)-1-({1-[(3S)-3-piperidinylmethyl]-1H-benzimidazol-2-yl}methyl)-1,2,3,4,4a,5,6,10b-octahydro-1,10-phenanthroline], with below 100 nM; and `CN(C)[C@@H]1CCN(c2cccc3nc(CN4CCC[C@H]5CCc6cccnc6[C@H]54)cn23)C1` [Example 105, (3R)-1-{2-[(4aR,10bS)-3,4,4a,5,6,10b-hexahydro-1,10-phenanthrolin-1(2H)-ylmethyl]imidazo[1,2-a]pyridin-5-yl}-N,N-dimethyl-3-pyrrolidinamine], with below 100 nM; and `C[C@H]1CCCN1c1cccc2nc(CN3CCC[C@H]4CCc5cccnc5[C@H]43)cn12` [Example 111, (4aR,10bS)-1-({5-[(2S)-2-methyl-1-pyrrolidinyl]imidazo[1,2-a]pyridin-2-yl}methyl)-1,2,3,4,4a,5,6,10b-octahydro-1,10-phenanthroline], with 100 to 500 nM. Then `NC1CCN(c2cccc3nc(CN4CCC[C@H]5CCc6cccnc6[C@H]54)cn23)CC1` [Example 89, 1-{2-[(4aR,10bS)-3,4,4a,5,6,10b-hexahydro-1,10-phenanthrolin-1(2H)-ylmethyl]imidazo[1,2-a]pyridin-5-yl}-4-piperidinamine], with below 100 nM. Turning to `NCCCCn1c(CN2CC[C@@H]3CCc4cccnc4[C@H]32)nc2ccccc21` (racemic) [Example 130, (trans) 4-[2-(2,3,3a,4,5,9b-hexahydro-1H-pyrrolo[3,2-h]quinolin-1-ylmethyl)-1H-benzimidazol-1-yl]-1-butanamine], the IC50 was in the range of 100 to 500 nM.

With `NCC1CCN(c2cccc3nc(CN4CCC[C@H]5CCc6cccnc6[C@H]54)cn23)CC1` [Example 85, [(1-{2-[(4aR,10bS)-3,4,4a,5,6,10b-hexahydro-1,10-phenanthrolin-1(2H)-ylmethyl]imidazo[1,2-a]pyridin-5-yl}-4-piperidinyl)methyl]amine], the IC50 is below 100 nM. Then `c1cnc2c(c1)CC[C@@H]1CCCN(Cc3cn4c(N[C@H]5CCCNC5)cccc4n3)[C@H]21` [Example 112, 2-[(4aR,10bS)-3,4,4a,5,6,10b-hexahydro-1,10-phenanthrolin-1(2H)-ylmethyl]-N-[(3S)-3-piperidinyl]imidazo[1,2-a]pyridin-5-amine], with below 100 nM. Then `NCCCCn1c(CN2CCC[C@@H]3CCc4cccnc4[C@H]32)nc2ccccc21` (relative stereo) [Example 37, (trans) 4-[2-(3,4,4a,5,6,10b-hexahydro-1,10-phenanthrolin-1(2H)-ylmethyl)-1H-benzimidazol-1-yl]-1-butanamine], with below 100 nM. The result for `NC1CN(c2cccc3nc(CN4CCC[C@H]5CCc6cccnc6[C@H]54)cn23)C1` [Example 97, 1-{2-[(4aR,10bS)-3,4,4a,5,6,10b-hexahydro-1,10-phenanthrolin-1(2H)-ylmethyl]imidazo[1,2-a]pyridin-5-yl}-3-azetidinamine] reads below 100 nM; that for `CN1CCCN(c2cccc3nc(CN4CCC[C@H]5CCc6cccnc6[C@H]54)cn23)CC1` [Example 93, (4aR,10bS)-1-{[5-(4-methylhexahydro-1H-1,4-diazepin-1-yl)imidazo[1,2-a]pyridin-2-yl]methyl}-1,2,3,4,4a,5,6,10b-octahydro-1,10-phenanthroline], below 100 nM. As to `c1cnc2c(c1)CC[C@H]1CCN(Cc3nc4ccccc4n3Cc3nc4ccccc4[nH]3)[C@H]21` (racemic) [Example 131, (trans) 1-{[1-(1H-benzimidazol-2-ylmethyl)-1H-benzimidazol-2-yl]methyl}-2,3,3a,4,5,9b-hexahydro-1H-pyrrolo[3,2-h]quinoline], the IC50 was in the range of 500 to 10000 nM.

Consider `CN(C)[C@H]1CCN(c2cccc3nc(CN4CCC[C@H]5CCc6cccnc6[C@H]54)cn23)C1` [Example 100, (3S)-1-{2-[(4aR,10bS)-3,4,4a,5,6,10b-hexahydro-1,10-phenanthrolin-1(2H)-ylmethyl]imidazo[1,2-a]pyridin-5-yl}-N,N-dimethyl-3-pyrrolidinamine], for which the IC50 was below 100 nM. Then `CN1CCN(c2cccc3nc(CN4CCC[C@H]5CCCc6cccnc6[C@H]54)cn23)CC1` [Example 124, (4aR,11bS)-1-{[5-(4-methyl-1-piperazinyl)imidazo[1,2-a]pyridin-2-yl]methyl}-2,3,4,4a,5,6,7,11b-octahydro-1H-pyrido[3′,2′:6,7]cyclohepta[1,2-b]pyridine], with below 100 nM; and `CN1CCN(Cc2c(CN3CCC[C@H]4CCc5cccnc5[C@H]43)nc3cccc(N4CCN(C)CC4)n23)CC1` [Example 56, (4aR,10bS)-1-({5-(4-methyl-1-piperazinyl)-3-[(4-methyl-1-piperazinyl)methyl]imidazo[1,2-a]pyridin-2-yl}methyl)-1,2,3,4,4a,5,6,10b-octahydro-1,10-phenanthroline], with below 100 nM. Then `CN(C)CCCn1c(CN2CC[C@@H]3CCc4cccnc4[C@H]32)nc2ccccc21` (racemic) [Example 132, (trans) 3-[2-(2,3,3a,4,5,9b-hexahydro-1H-pyrrolo[3,2-h]quinolin-1-ylmethyl)-1H-benzimidazol-1-yl]-N,N-dimethyl-1-propanamine], with 100 to 500 nM. The result for `CN(C)C1CCN(c2cccc3nc(CN4CCC[C@H]5CCc6cccnc6[C@H]54)cn23)CC1` [Example 67, 1-{2-[(4aR,10bS)-3,4,4a,5,6,10b-hexahydro-1,10-phenanthrolin-1(2H)-ylmethyl]imidazo[1,2-a]pyridin-5-yl}-N,N-dimethyl-4-piperidinamine] reads below 100 nM; that for `C[C@@H]1CN(c2cccc3nc(CN4CCC[C@H]5CCc6cccnc6[C@H]54)cn23)C[C@H](C)N1` [Example 77, (4aR,10bS)-1-({5-[(3R,5S)-3,5-dimethyl-1-piperazinyl]imidazo[1,2-a]pyridin-2-yl}methyl)-1,2,3,4,4a,5,6,10b-octahydro-1,10-phenanthroline], below 100 nM.

As to `CN1CCN(c2cccc3nc(CN4CCC[C@@H]5CCCc6cccnc6[C@H]54)cn23)CC1` [Example 123, (4aS,11bS)-1-{[5-(4-methyl-1-piperazinyl)imidazo[1,2-a]pyridin-2-yl]methyl}-2,3,4,4a,5,6,7,11b-octahydro-1H-pyrido[3′,2′:6,7]cyclohepta[1,2-b]pyridine], the IC50 was below 100 nM.

As for `c1cnc2c(c1)CC[C@@H]1CCCN(Cc3cn4c(N5CCC(C6CCNCC6)CC5)cccc4n3)[C@H]21` [Example 76a, (4aR,10bS)-1-{[5-(4,4′-bipiperidin-1-yl)imidazo[1,2-a]pyridin-2-yl]methyl}-1,2,3,4,4a,5,6,10b-octahydro-1,10-phenanthroline], the IC50 is 100 to 500 nM. The result for `c1cnc2c(c1)CC[C@@H]1CCCN(Cc3c[nH]cn3)[C@H]21` [Example 50, (4aR,10bS)-1-(1H-imidazol-4-ylmethyl)-1,2,3,4,4a,5,6,10b-octahydro-1,10-phenanthroline] reads 500 to 10000 nM; that for `CN(C)CCNc1cccc2nc(CN3CCC[C@H]4CCc5cccnc5[C@H]43)cn12` [Example 90, N′-{2-[(4aR,10bS)-3,4,4a,5,6,10b-hexahydro-1,10-phenanthrolin-1(2H)-ylmethyl]imidazo[1,2-a]pyridin-5-yl}-N,N-dimethyl-1,2-ethanediamine], 100 to 500 nM. `CN(C)CCCn1c(CN2CCC[C@@H]3CCc4cccnc4[C@H]32)nc2ccccc21` (relative stereo) [Example 40, (trans) 3-[2-(3,4,4a,5,6,10b-hexahydro-1,10-phenanthrolin-1(2H)-ylmethyl)-1H-benzimidazol-1-yl]-N,N-dimethyl-1-propanamine]: the IC50 lay in the range of 100 to 500 nM.

`CN1CCN(c2cccc3nc(CN4CCC[C@H]5CCc6cccnc6[C@H]54)c(CN4CCCCC4)n23)CC1` [Example 57, (4aR,10bS)-1-{[5-(4-methyl-1-piperazinyl)-3-(1-piperidinylmethyl)imidazo[1,2-a]pyridin-2-yl]methyl}-1,2,3,4,4a,5,6,10b-octahydro-1,10-phenanthroline]: the IC50 is below 100 nM.

For the molecule `OC1CCN(c2cccc3nc(CN4CCC[C@H]5CCc6cccnc6[C@H]54)cn23)CC1` [Example 69, 1-{2-[(4aR,10bS)-3,4,4a,5,6,10b-hexahydro-1,10-phenanthrolin-1(2H)-ylmethyl]imidazo[1,2-a]pyridin-5-yl}-4-piperidinol], the IC50 was 100 to 500 nM.

Take `c1ccc(Cn2c(CN3CCC[C@H]4CCc5cccnc5[C@H]43)nc3ccccc32)nc1` (racemic) [Example 45, (cis) 1-{[1-(2-pyridinylmethyl)-1H-benzimidazol-2-yl]methyl}-1,2,3,4,4a,5,6,10b-octahydro-1,10-phenanthroline]: the IC50 lay in the range of 500 to 10000 nM. As to `CN1CCCN(c2cccc3nc(CN4CCC[C@@H]5CCCc6cccnc6[C@H]54)cn23)CC1` (relative stereo) [Example 125, (trans) 1-{[5-(4-methylhexahydro-1H-1,4-diazepin-1-yl)imidazo[1,2-a]pyridin-2-yl]methyl}-2,3,4,4a,5,6,7,11b-octahydro-1H-pyrido[3′,2′:6,7]cyclohepta[1,2-b]pyridine], the IC50 lay in the range of 100 to 500 nM. With `CCN1CCN(c2cccc3nc(CN4CCC[C@H]5CCc6cccnc6[C@H]54)cn23)CC1` [Example 73, (4aR,10bS)-1-{[5-(4-ethyl-1-piperazinyl)imidazo[1,2-a]pyridin-2-yl]methyl}-1,2,3,4,4a,5,6,10b-octahydro-1,10-phenanthroline], the IC50 was below 100 nM.
